The values below come from US20170368120A1, “Use of compositions of water/alcohol extracts of Antrodia cinnamomea cut-log wood cultivated fruiting body and solid-state cultivated mycelium as auxiliaries for anti-cancer agents” (Taiwan Leader Biotech Corp, priority 2016, published 2017).

Data set [1] relates to blood cells in peripheral blood. Kind of data set: Complete Blood Count in 5-FU treated mice. The data set is classed as in vivo, C57BL/6 mice. The conditions noted are these: 5-FU alone 200 mg/kg ip, compared to control. As for the experimental part:
(§1) The effect of the A. cinnamomea composition (L) on recovering the blood cell reducing caused by the application of chemotherapy drug 5-FU was evaluated in the colony test of CFU-GM in bone marrow. C57BL/6 mice of eight-week old, purchased from the National Laboratory Animal Center, were used in the test. The tested animal groups included the control, 5-FU, 5FU+L, 5-FU+0.5L, 5-FU+0.25L and 5-FU+Angiotensin II (Aii) groups, with 6 mice in each group. After the intraperitoneal injection of 5-FU (200 mg/kg) at first day, the test drug A. cinnamomea composition (L) was orally administered to the animals, or the positive control drug Angiotensin II (Aii, 100 μg/kg) was intraperitoneally injected to the animals at day 4˜10. Dosages of the A. cinnamomea composition (L) were used as follow: 1× dose of 680 mg/kg, 0.5× dose of 340 mg/kg and 0.25× dose of 170 mg/kg. Whole blood was collected from cheek before sacrificing the animals at day 11, and the Complete Blood Count (CBC) was performed to record the number of blood cells, including white blood cells, red blood cells, lymphocytes and neutrophils in peripheral blood. The femur was removed from the sacrificed mouse at day 11 of the experiment. The bone marrow cells were collected for the cultivation of CFU-GM. Cells was cultured for 7 days, and the number of CFU-GM colonies was counted.

For data set [2], the system named is CFU-GM in bone marrow. The data set can be described thus: CFU-GM colony test in bone marrow of 5-FU treated mice. The conditions noted are these: 5-FU alone 200 mg/kg ip at first day; marrow at day 11. It is filed as in vivo, C57BL/6 mice. As for the experimental part: as §1
Data set [3] deals with Human gastric cancer MKN-45 cells. Kind of data set: Auxiliary effect on 5-FU in MKN-45 tumor-bearing nude mice. The data set is classed as in vivo, Balb/c nu/nu mice. The conditions noted are these: 5-FU alone 25 mg/kg ip three times a week. How it is done: In this example, the auxiliary effect of the A. cinnamomea composition on the anti-tumor agent 5-FU was confirmed in an animal model. Balb/c nu/nu mice of six-week old, purchased from the National Laboratory Animal Center, were used in the test. The 5-FU (25 mg/kg, ip) treated group was used as positive group, with drug administration frequency of three times a week. The A. cinnamomea composition (L) of solid-state cultivated mycelium water/alcohol extract and cut-log wood cultivated fruiting body water/alcohol extract was orally administered to mice once a day with following dosages: 1× dose of 680 mg/kg, 0.5× dose of 340 mg/kg, 0.25× dose of 170 mg/kg and 0.125× dose of 85 mg/kg. If the mice had been injected with 5-FU, the L was orally treated four hours after the application of 5-FU. Human gastric cancer MKN-45 cells (3×10^6) were implanted into immune deficient nude mice, and the drug administration was started when the tumor size reached to 100˜200 mm^3. The tested animal groups included the control, 5-FU, 5FU+L, 5-FU+0.5L, 5-FU+0.25L and 5-FU+0.125L groups, with 8 mice in each group.

Data set [4] concerns MKN45 gastric cancer cells. The data set can be described thus: Gastric tumor growth in MKN45 tumor-bearing nude mice. The data set is classed as in vivo. The conditions noted are these: 5-FU injection. An excerpt: In this example, the effects of the A. cinnamomea composition of solid-state cultivated mycelium water/alcohol extracts and cut-log wood cultivated fruiting body water/alcohol extracts on gastric tumor growth were further evaluated in an animal model. The test A. cinnamomea compositions included 5% FB/95% SC, 10% FB/90% SC, 20% FB/80% SC, and 40% FB/60% SC, respectively. The animal used in the experiment is an immune deficient mouse (nude mice) implanted MKN45 gastric cancer cells. 10 days after the cancer cell implantation, the animals were orally given the tested A. cinnamomea compositions (300 mg/kg/day) by oral gavage for 21 days. The treated animals were scarified. The tumor was isolated and weighted, as the key indicator for assessing the inhibition of tumor growth.

For `O=c1[nH]cc(F)c(=O)[nH]1` [5-FU, 5-fluorouracil], in data set [1], the number of lymphocytes result is “significantly reduced”, the number of neutrophils entry is reported as “significantly reduced”, the “number of red blood cells” value is “significantly reduced” and the “number of white blood cells” value is reported as “significantly reduced”. Moreover, in data set [2], the CFU-GM colony number was 1,869 colonies/10^6 marrow cells. Besides, the tumor weight in data set [3] came out at 0.85 g. Besides, in data set [4], the tumor weight entry is reported as “significant decrease in tumor weight”.
